In US20170044232A1, “MUTANT SMOOTHENED AND METHODS OF USING THE SAME” (GENENTECH, INC., priority 2014, published 2017):
Entries after “also recorded” stand apart in the source; their conditions may differ.

Assays:
[1] = system: PPT CGNPs expressing vismodegib-resistant SMO mutants; assay: PPT CGNP proliferation, methyl-[3H]-thymidine incorporation; type: cell-based, mice; settings: 1 μM JQ1 (FIG. 16B)
Excerpt: (§1) It has previously been noted that Hh-driven tumor cells rapidly lose their Hh pathway dependence during culturing (Sasai et al., 2006). However, CGNPs proliferate in vivo in a Hh dependent manner and maintain their Hh pathway dependence in culture for a finite period (Wechsler-Reya and Scott, 1999). CGNPs isolated from Ptch1loxp/loxp Tp53loxp/loxp Rosa26LSL-tdTomato (PPT) pups were infected with lentiviral constructs expressing a SMO variant together with an enhanced green fluorescent protein (eGFP)-Cre fusion protein (FIG. 12C). The Cre recombinase induces loss of Ptch1 and thus ensures that only transduced CGNPs can proliferate in the absence of exogenous Sonic hedgehog ligand (SHH; FIG. 11D). […] Proliferation by methyl-[3H]-thymidine incorporation was monitored, while Cre-dependent tandem dimer (td) Tomato expression enabled visualization and quantification of infected cells.
(§2) SMO mutants were generated in pRK5-SMO vectors as described (Dijkgraaf et al., 2011; Yauch et al., 2009) and were either utilized in Gli-luciferase reporter assays as described (Dijkgraaf et al., 2011) or cloned into lentiviral vectors for transduction of primary CGNP cultures. Proliferation was assayed using methyl-[3H]-thymidine incorporation (Kool et al., 2014).
(§3) Cerebella from post-natal day 5-7 Ptch1^loxp/loxp Rosa26^LSL.tdTomato Tp53^loxp/loxp mice were dissociated in 0.05% Trypsin for 10 min at 37° C. Cells were collected by centrifugation at 514×g for 10 min at 4° C., resuspended in CGNP media (Neurobasal medium (Life Technologies) containing 1×B27 (without vitamin A; Life Technologies), 0.45% glucose (Sigma Aldrich), 25 mM KCl, 0.4% bovine serum albumin (Sigma Aldrich), 2 mM glutamine, 100 U/ml Penicillin (Life Technologies), 100 μg/ml Streptomycin (Life Technologies), 200 ng/ml octylated recombinant SHH) and filtered through a 0.45 μm filter (Falcon). Cells were plated in poly-D-lysine coated 6-well plates (Corning) at 5×10E5 cells/well and infected with lentivirus at a multiplicity of infection (MOI) of 1. After 24 hr, cells were harvested by trypsinization, collected in CGNP media and replated for downstream applications.
(§4) To examine the effects of HPIs on proliferation, virally transduced CGNPs were plated in poly-D-lysine-coated 96-well plates (Corning) at 25,000 cells/well in CGNP media without SHH. […] After 24 hr, cells were pulsed with 1 μCi/ml methyl-[^3H]-thymidine (Amersham/GE Healthcare) and cultured for an additional 16-24 hr. Cells were harvested onto 96-well filter plates (Perkin Elmer) using a Filtermate Cell Harvester (Perkin Elmer), and incorporated radioactivity was quantified by liquid scintillation spectrophotometry on a TopCount NXT (PerkinElmer).

[2] = molecular target: T1, SMO-A459V (Homo sapiens, UniProt Q99835, A459V); assay: Gli-luciferase based Hh reporter assay; type: cell-based; settings: C3H10T½ cells
T1 construct: expressed in transfected cells; host or cells: C3H10T1/2 cells
Procedure: as §2
C3H10T½ cells (ATCC) were seeded into six-well plates at 1.75×10E5 cells/well in DMEM High Glucose with 4 mM glutamine, 10 mM Hepes pH 7.2 and 10% FBS. After 16 h cells were transfected with 400 ng of expression construct, 400 ng of 9×-Gli-BS and 200 ng of pRL-TK per well using GeneJuice Transfection Reagent (Novagen). For the PTCH1 inhibition experiments, cells were transfected with 200 ng SMO expression construct and an additional 200 ng of DNA containing varying ratios of PTCH1 to empty vector. Six hours later, cells from one well were trypsinized and redistributed over four wells of a 12-well plate. After 16 hours the FBS content of the culture medium was reduced to 0.5% to induce formation of primary cilia, and small molecule Hh inhibitors were added at indicated concentrations. Firefly luciferase activity was determined 24 hours later with the Dual-Glo Luciferase Assay System (Promega) and read using a Wallac EnVision plate reader (Perkin Elmer). […]

[3] = system: PPT CGNPs infected with SMO DBP mutants; assay: PPT CGNP proliferation, methyl-[3H]-thymidine incorporation; type: cell-based, mice; settings: all DBP mutations; >1 μM vismodegib (FIG. 12D)
Excerpt: as §1, §2, §3, §4

[4] = system: SMO-A459V expressing CGNPs; assay: as above; type: cell-based, mice; settings: SMO-A459V (FIG. 15D)
Excerpt: as §1, §2, §3, §4

[5] = system: SMOW535L expressing CGNPs; assay: as above; type: cell-based, mice; settings: SMOW535L (FIG. 15D)
Excerpt: as §1, §2, §3, §4

[6] = molecular target: SMO L515A (Homo sapiens, UniProt Q99835, L515A); settings: 1 mM vismodegib; cited from earlier work
[7] = molecular target: SMO E518K (Homo sapiens, UniProt Q99835, E518K); settings: cited from earlier work
[8] = molecular target: SMO E518A (Homo sapiens, UniProt Q99835, E518A); settings: cited from earlier work
[9] = system: advanced BCC; settings: majority of patients; complete and partial responses (Sekulic et al., 2012); cited from earlier work

T1 sequence (Q99835 28-787 A459V): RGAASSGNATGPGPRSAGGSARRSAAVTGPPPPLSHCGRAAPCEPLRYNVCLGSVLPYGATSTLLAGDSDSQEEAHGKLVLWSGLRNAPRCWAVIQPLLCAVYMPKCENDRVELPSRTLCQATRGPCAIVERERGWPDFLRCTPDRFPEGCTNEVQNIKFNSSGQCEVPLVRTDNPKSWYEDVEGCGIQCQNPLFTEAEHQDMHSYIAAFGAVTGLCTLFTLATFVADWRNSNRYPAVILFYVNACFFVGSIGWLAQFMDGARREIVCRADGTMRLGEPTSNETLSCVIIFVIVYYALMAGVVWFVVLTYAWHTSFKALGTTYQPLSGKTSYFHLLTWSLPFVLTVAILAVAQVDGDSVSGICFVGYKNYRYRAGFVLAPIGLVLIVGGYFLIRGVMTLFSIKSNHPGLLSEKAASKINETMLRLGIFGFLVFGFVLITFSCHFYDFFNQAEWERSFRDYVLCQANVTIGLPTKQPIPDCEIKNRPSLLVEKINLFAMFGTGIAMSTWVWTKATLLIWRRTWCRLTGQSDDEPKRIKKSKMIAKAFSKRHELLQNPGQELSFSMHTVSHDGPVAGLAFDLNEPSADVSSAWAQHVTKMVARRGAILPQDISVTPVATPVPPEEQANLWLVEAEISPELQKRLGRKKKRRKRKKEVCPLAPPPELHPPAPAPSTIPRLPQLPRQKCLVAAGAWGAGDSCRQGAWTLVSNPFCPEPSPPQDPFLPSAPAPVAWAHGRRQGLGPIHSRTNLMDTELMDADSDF
Chain of SMO E518K (Q99835 28-787 E518K): as the sequence (Q99835 28-787 A459V) above, with V432A, E491K counted along it
Chain of SMO L515A (Q99835 28-787 L515A): as the sequence (Q99835 28-787 A459V) above, with V432A, L488A counted along it
Chain of SMO E518A (Q99835 28-787 E518A): as the sequence (Q99835 28-787 A459V) above, with V432A, E491A counted along it

| SMILES | proliferation in the presence of JQ1 [1] | sensitivity to inhibition by vismodegib [2] | proliferation at high levels of vismodegib [3] | proliferation at high concentrations of vismodegib [4] | proliferation at high concentrations of vismodegib [5] | sensitivity to inhibition by vismodegib [6] | sensitivity to vismodegib [7] | sensitivity to vismodegib [8] | clinical outcome of BCC patients treated with vismodegib [9] |
| --- | --- | --- | --- | --- | --- | --- | --- | --- | --- |
| Cc1sc2c(c1C)C(c1ccc(Cl)cc1)=N[C@@H](CC(=O)OC(C)(C)C)c1nnc(C)n1-2 [JQ1] | reduced proliferation |  |  |  |  |  |  |  |  |
| CS(=O)(=O)c1ccc(C(=O)Nc2ccc(Cl)c(-c3ccccn3)c2)c(Cl)c1 [vismodegib] |  | decreased sensitivity; also recorded: reduced sensitivity | continuing to proliferate | continued to proliferate | continued to proliferate | activating, sensitive | reduced sensitivity to | reduced sensitivity to | clinical benefit |
